From patent US11850286B2, “Sulfamide linker, conjugates thereof, and methods of preparation” (priority 2014, dated 2023)

Assay: Determination of HPLC retention time (RP-HPLC, polarity)
Type: physicochemical
Experimental: Samples of compounds 19-38 were injected on an HPLC system equipped with an Phenomenex Luna C18(2) 5μ, 150×4.6 mm, 100 Å column and eluted with either a gradient of 10% MeCN (0.1% TFA)/90% water (0.1% TFA) to 90% MeCN (0.1% TFA)/10% water (0.1% TFA) or a gradient of 10% MeCN/90% 10 mM potassium phosphate buffer pH 7.4 to 90% MeCN/10% 10 mM potassium phosphate buffer pH 7.4. The retention times obtained for these compounds are depicted in Table 3.

[1] = RP-HPLC C18, MeCN/10 mM potassium phosphate buffer pH 7.4 gradient
[2] = RP-HPLC C18, MeCN/water gradient with 0.1% TFA

Compound | retention time [1] | retention time [2]
COc1cc2cc(c1Cl)N(C)C(=O)C[C@H](OC(=O)[C@H](C)N(C)C(=O)CCCCCNC(=O)CCOCCOCCOCCOCCNC(=O)OCC1C3CCC#CCCC31)[C@]1(C)O[C@H]1[C@H](C)[C@@H]1C[C@@](O)(NC(=O)O1)[C@H](OC)/C=C/C=C(\C)C2 (some centres unmarked) [Compound 30] | 10.6 min | 10.5 min
COc1cc2cc(c1Cl)N(C)C(=O)C[C@H](OC(=O)[C@H](C)N(C)C(=O)CCCCCNC(=O)OCc1ccc(NC(=O)[C@H](CCCNC(N)=O)NC(=O)[C@@H](NC(=O)OCCN(CCOC(=O)N[C@H](C(=O)N[C@@H](CCCNC(N)=O)C(=O)Nc3ccc(COC(=O)NCCCCCC(=O)N(C)[C@@H](C)C(=O)O[C@H]4CC(=O)N(C)c5cc(cc(OC)c5Cl)C/C(C)=C/C=C/[C@@H](OC)[C@@]5(O)C[C@H](OC(=O)N5)[C@@H](C)[C@@H]5O[C@@]45C)cc3)C(C)C)S(=O)(=O)NC(=O)OCC3C4CCC#CCCC43)C(C)C)cc1)[C@]1(C)O[C@H]1[C@H](C)[C@@H]1C[C@@](O)(NC(=O)O1)[C@H](OC)/C=C/C=C(\C)C2 (some centres unmarked) [Compound 37] | 10.5 min | 11.2 min
COc1cc2cc(c1Cl)N(C)C(=O)C[C@H](OC(=O)[C@H](C)N(C)C(=O)CCCCCNC(=O)OCc1ccc(NC(=O)[C@H](CCCNC(N)=O)NC(=O)[C@@H](NC(=O)OCCOCCNS(=O)(=O)NC(=O)OCC3C4CCC#CCCC43)C(C)C)cc1)[C@]1(C)O[C@H]1[C@H](C)[C@@H]1C[C@@](O)(NC(=O)O1)[C@H](OC)/C=C/C=C(\C)C2 (some centres unmarked) [Compound 36] | 9.3 min | 10.4 min
O=C(CCCCCCNC(=O)OCC1C2CCC#CCCC21)NCc1ccccc1 (centres unmarked) [Compound 19, BCN-Heptanoic Acid Benzylamide] | 11.4 min | 11.4 min
O=C(NCCCCCOC(=O)NS(=O)(=O)NCc1ccccc1)OCC1C2CCC#CCCC21 (centres unmarked) [Compound 21] | 9.2 min | 11.6 min
COc1cc2cc(c1Cl)N(C)C(=O)C[C@H](OC(=O)[C@H](C)N(C)C(=O)CCCCCNC(=O)CCOCCOCCOCCOCCOCCOCCOCCOCCOCCOCCOCCOCCNC(=O)OCC1C3CCC#CCCC31)[C@]1(C)O[C@H]1[C@H](C)[C@@H]1C[C@@](O)(NC(=O)O1)[C@H](OC)/C=C/C=C(\C)C2 (some centres unmarked) [Compound 31] | 10.1 min | 10.1 min
CN(C(=O)OCCCCCNC(=O)OCC1C2CCC#CCCC21)S(=O)(=O)NCc1ccccc1 (centres unmarked) [Compound 22] | 12.6 min | 12.7 min
COc1cc2cc(c1Cl)N(C)C(=O)C[C@H](OC(=O)[C@H](C)N(C)C(=O)CCCCCNC(=O)OCc1ccc(NC(=O)[C@H](CCCNC(N)=O)NC(=O)[C@@H](NC(=O)OCCN(CCOC(=O)N[C@H](C(=O)N[C@@H](CCCNC(N)=O)C(=O)Nc3ccc(COC(=O)NCCCCCC(=O)N(C)[C@@H](C)C(=O)O[C@H]4CC(=O)N(C)c5cc(cc(OC)c5Cl)C/C(C)=C/C=C/[C@@H](OC)[C@@]5(O)C[C@H](OC(=O)N5)[C@@H](C)[C@@H]5O[C@@]45C)cc3)C(C)C)S(=O)(=O)NC(=O)OCCOCCNS(=O)(=O)NC(=O)OCC3C4CCC#CCCC43)C(C)C)cc1)[C@]1(C)O[C@H]1[C@H](C)[C@@H]1C[C@@](O)(NC(=O)O1)[C@H](OC)/C=C/C=C(\C)C2 (some centres unmarked) [Compound 38] | 9.5 min | 11.1 min
O=C(CCCCCCNC(=O)OCC1C2CCC#CCCC21)NS(=O)(=O)NCc1ccccc1 (centres unmarked) [Compound 20] | 9.6 min | 11.6 min
COc1cc2cc(c1Cl)N(C)C(=O)C[C@H](OC(=O)[C@H](C)N(C)C(=O)CCCCCNC(=O)CCOCCOCCOCCOCCOCCOCCOCCOCCOCCOCCOCCOCCOCCOCCOCCOCCOCCOCCOCCOCCOCCOCCOCCOCCNC(=O)OCC1C3CCC#CCCC31)[C@]1(C)O[C@H]1[C@H](C)[C@@H]1C[C@@](O)(NC(=O)O1)[C@H](OC)/C=C/C=C(\C)C2 (some centres unmarked) [Compound 32] | 9.7 min | 9.7 min
